The results in this text go back to US10233447B2, “Self-cleaving ribozymes and uses thereof” (The Children s Medical Center Corporation, priority 2003, dated 2019).

Values joined by “and” are separate entries in the source; they are usually repeats but may differ in a detail not shown here. Identical values can stand only once. “Also recorded” adds a separate entry of the source. Some results are limits rather than exact numbers.

For orientation: EC50 means the concentration giving half of the maximal effect.

Data set [1] deals with N79 rz. Description: microbe, parasite or virus in culture. The format is cell-based, Schistosoma mansoni. Conditions: for EC50 / maximal fold induction / Foldmax: inhibition of ribozyme activity in cells; for maximal fold induction: read-out: Foldmax; for luciferase protein expression / induced gene expression: double N79 rz; for luciferase activity, emission: untreated 1,555, background 121.

Data set [2] relates to double functional N79 rz. As to the kind of experiment: In vivo induction of luciferase in retina injected with AAV carrying double N79 rz, bioluminescent imaging. Conditions: for luciferase expression in retina: mice with AAV carrying double functional N79, drug pellet, day 2. On the set-up: species or system nude mice. On the procedure:
FIG. 4 show effective control of gene expression in vivo using rz-based gene regulation system. […] AAV injection was done 3 weeks prior to the first imaging day (day 0). Drug-releasing pellets were implanted subcutaneously in the dorsal neck immediately after the first imaging, and released the drug over 7 days. The toyocamycin pellet contains 10 μg of drug; adenosine pellet 50 μg.
Having documented the ability of the rz-based regulation system to function in mammalian cell culture, a final important issue to be addressed was whether the intracellular machinery and ‘environment’ necessary for self-cleavage was operable in primary cells in vivo. […] After 21 days, the injected animals were imaged for luciferase gene expression using the Xenogen IVIS imager, which provides a quantitative measure ofluciferase expression based on single-photon detection (Contag, et al., 1998, Nat Med 4, 245-7). […] Two days later, all animals were then imaged for luciferase expression. […] Quantification of the photon output indicated gene expression was ‘induced’ 39, 185, and 191-fold in the three mice infected with virus carrying the functional rzs and treated with toyocamycin. […] While the retina may be particularly accessible to ‘inducer’ due to its extensive vascularization, Applicants have shown in preliminary experiments that gene regulation can be accomplished at a number of other anatomical sites in vivo (e.g., muscle and ear).
Prior to imaging, the anesthetized mice were injected with 150 μl of luciferin (30 mg/ml) and the pupils were moistened and dilated with 1% tropicamide. A series of bioluminescent images were taken for up to 30 minutes using the Xenogen IVIS imager. Photon output was quantified at the plateau of the time course using the LivingImage software. Induction in fold was calculated based on the photon output in the retina before and after drug treatment, and was normalized to the photon output from the leg muscles. Adenosine was purchased from Innovative Research of America.

The test system of data set [3] is 293 cells. As to the kind of experiment: Transient transfection LacZ reporter assay of ribozyme self-cleavage. Particulars: for Fold (suppression in reporter gene expression relative to the vector with inactive rz): pMD LacZ vector, functional vs inactive rz, fold=1 means no effect. Format: cell-based. An excerpt:
The approach is critically dependent upon both the ability of a specific self-cleaving ribozyme (rz) to effect the highly efficient cleavage (>99%) of an mRNA molecule into which it is embedded, and the availability of a small molecule capable of efficiently inhibiting self-cleavage of the cis-acting rz within an intracellular milieu. A first step in our studies was to identify candidate rz sequences capable of efficient cleavage in mammalian cells in the context of an ‘expression’ vector. For this purpose, Applicantsmade use of a transient transfection assay involving a standard mammalian expression vector (Ory, et al., 1996, Proc Natl Acad Sci USA 93, 11400-6) which encodes a LacZ reporter (FIG. 1b). […] After transfection of 293 cells with these vectors, protein extracts were prepared from cells and the β-gal level quantified.
1.5 μl Fugene-6 (Roche, Basel, Switzerland) was diluted in 100 μl OPTIMEM (Gibco, Carlsbad, Calif.) and incubated for 5 minutes at room temperature. This solution was added dropwise to 0.45 μg plasmid DNA and incubated for 15 minutes. The plasmid DNA contains either a wildtype or a mutant ribozyme and a Lacz reporter gene. The DNA mixture was then added dropwise to 3×10^5 HEK 293 cells (plated the previous day in a 35 mm dish). Cells were harvested for β-galactosidase assay 24 hours following transfection.
Plasmids carrying different ribozymes were transfected into HEK293T cells and lysed 24 h later. The cell extracts were incubated with ONPG, and the amount of B-galactosidase in cell extracts was measured by quantifying the processed ONPG using a luminometer.
Cleaving activity was determined by comparing the level of −galactosidase measured in the test sample to a control comprising a point mutation (A-+G) at position 14 which attenuates ribozyme activity. Briefly, transfected HEK293 cells were lysed with a lysis solution and the extracts of cells were separated from cell debris. The extracts were then incubated with ONPG, a chromogenic substrate of β-galactosidase. […] The intensity of yellow light emission was measured with a luminometer (Miller J., Experiments in Molecular Genetics, Cold Spring Harbor Laboratory, Cold Spring Harbor, N.Y. (1972)).
On the technique in general: In a reporter assay the amount or activity of a reporter protein is the signal.

Where [4] appears, read: rz inserted at position A of pMD vector.

For the molecule `O=c1[nH]c(=O)n([C@@H]2O[C@H](CO)[C@@H](O)[C@H]2O)cc1Br` [5-BromoUridine], in data set [1] (Schistosoma mansoni), the EC50 turned out to be 267 µM and the maximal fold induction was 16.

For `O=c1[nH]cc(F)c(=O)[nH]1` [5-FluoroUracil], in data set [1] (Schistosoma mansoni), a half-maximal response (EC50) required 200 µM and the maximal fold induction is 377. Moreover, in data set [1] (stable cell line), the “luciferase protein expression / induced gene expression” value is “induced gene expression”.

For the molecule `O=c1[nH]c(=O)n([C@@H]2O[C@H](CO)[C@@H](O)[C@H]2O)cc1F` [5-FluoroUridine], in data set [1] (Schistosoma mansoni), the EC50 amounted to 5.9 µM and the maximal fold induction stood at 120. Further, the “luciferase protein expression / induced gene expression” value in data set [1] (stable cell line) was “induced gene expression”.

With `Nc1ncnc2c1nnn2[C@@H]1O[C@H](CO)[C@@H](O)[C@H]1O` [8-Azaadenosine], in data set [1] (Schistosoma mansoni), the EC50 worked out at 4 µM and the maximal fold induction was determined as 45.

As to `CN(C)c1ccc2cc3ccc(N(C)C)cc3nc2c1` [Acridine orange], in data set [1] (Schistosoma mansoni), the EC50 came out at 7 µM and the maximal fold induction amounted to 4.

As to `CC[n+]1c(-c2ccccc2)c2cc(N)ccc2c2ccc(N)cc21` [Homidium bromide], in data set [1] (Schistosoma mansoni), the EC50 amounted to 2 µM and the maximal fold induction turned out to be 8.

Turning to `OC[C@H]1O[C@@H](n2cnc3cncnc32)[C@H](O)[C@@H]1O` [Nebularine], in data set [1] (Schistosoma mansoni), the EC50 is 10 µM and the maximal fold induction amounted to 8.

Consider `NC(=O)c1cn([C@@H]2O[C@H](CO)[C@@H](O)[C@H]2O)c2ncnc(N)c12` [Sangivamycin], for which, in data set [1] (Schistosoma mansoni), the EC50 turned out to be 1 µM and the maximal fold induction is 38.

In the case of `N#Cc1cn([C@@H]2O[C@H](CO)[C@@H](O)[C@H]2O)c2ncnc(N)c12` [Toyocamycin], the “luciferase activity, emission” value in data set [1] (0.5 μM, 24 hours) was 66,774 photons per second per 1000 cells; in data set [1] (1 μM, 24 hours), 242,546 photons per second per 1000 cells; in data set [1] (1.5 μM, 24 hours), 377,655 photons per second per 1000 cells. In data set [1] (Schistosoma mansoni), the EC50 amounted to 0.4 µM. In addition, in data set [1] (Schistosoma mansoni), the maximal fold induction came to 365. Moreover, in data set [1] (northern blot, nucleus and cytoplasm, 24 hours of treatment), the “amount of luciferase mRNA” value is “increased to a level comparable to that of cells carrying inactive rz”. Also, the “concentrations at which toxic effects were observed” value in data set [1] (stable cell line, 24 hours) was “higher than 1.5 μM”. In data set [1] (stable cell line), the “luciferase protein expression / induced gene expression” value was “dramatic increase”. Further, the “induced gene expression level relative to virus carrying inactive rzs” value in data set [2] (animal showing 191-fold induction) is recorded as no more than 40%. Besides, the “gene expression 'induced', photon output in retina” value in data set [2] (individual mice, functional rzs, 10 μg pellet subcutaneous, day 2, normalized to leg muscles) is 39 fold and 185 fold and 191 fold. Moreover, in data set [2], the “luciferase expression in retina” value was “readily detectable expression; also recorded: strong induction”.

As to `Nc1ncnc2c1ccn2[C@@H]1O[C@@H]2COP(=O)(O)O[C@H]2[C@H]1O` [Tubercidin-cyclic monophosphate], in data set [1], the response was half-maximal at 34 µM (EC50) and the Foldmax is recorded as 35 fold.

In data set [1], `Nc1ncnc2c1ccn2[C@@H]1O[C@H](COP(=O)(O)O)[C@@H](O)[C@H]1O` [Tubercidin-monophosphate] came in with an EC50 of 2 µM and a Foldmax of 39 fold.

Turning to `Nc1ncnc2c1ccn2[C@@H]1O[C@H](COP(=O)(O)OP(=O)(O)OP(=O)(O)O)[C@@H](O)[C@H]1O` [Tubercidin-triphosphate], in data set [1] (Schistosoma mansoni), the response was half-maximal at 2 µM (EC50) and the maximal fold induction was 35.

With `Nc1ncnc2c1ccn2[C@@H]1O[C@H](CO)[C@@H](O)[C@H]1O` [Tubercidin], in data set [1] (Schistosoma mansoni), a half-maximal response (EC50) required 2.5 µM and the maximal fold induction is 58.

Regarding `Nc1ncnc2c1ncn2[C@@H]1O[C@H](CO)[C@@H](O)[C@H]1O` [adenosine], the “ability to inhibit rz self-cleavage” value in data set [1] is “no ability”. The “luciferase expression in retina” value in data set [2] is on record as “little if any gene expression”.

Take “N94: N79 with shortened stem I, SEQ ID NO: 8 (CCAGCUGAUGAGUCCCAAAUAGGACGAAACGCGCUUCGGUGCGUCCUGG; expressed or natural sequence)”: the “cleavage activity, fold difference between functional and inactive rz” value in data set [3] (rz at position E of pMD vector) was “vastly reduced”.

B1: Cricket hammerhead: hammerhead Pst-3 rz from the Dolichopoda cave cricket, SEQ ID NO: 1 (nucleic acid)
chain: AUGUGUGUUCCCUCUGCCCCGCUGAUGAGGUCGGGGAGACCGAAAGGGUCAACUCUACGGGGCUAUUACAUGCAAU
modifications: expressed or natural sequence
In the case of B1, the “Fold (suppression in reporter gene expression relative to the vector with inactive rz)” value in data set [3] was 13 fold. The “cleavage activity, fold difference between functional and inactive rz” value in data set [3] (setting [4]) is recorded as 13 fold.

B2: N93: N79 with shortened stem I, SEQ ID NO: 7 (nucleic acid)
chain: AGGUACAUCCAGCUGAUGAGUCCCAAAUAGGACGAAACGCGCUUCGGUGCGUCCUGGAUUCCACU
modifications: expressed or natural sequence
Take B2: the “cleavage activity, fold difference between functional and inactive rz” value in data set [3] (rz at position E of pMD vector) was “vastly reduced”.

B3: N99: N79 with changes in stem I near the core, SEQ ID NO: 6 (nucleic acid)
chain: CUGAGAUGCAGGUACAUCCCACUGAUGAGUCCCAAAUAGGACGAAACGCGCUUCGGUGCGUCUGGGAUUCCACUGCUAUCCAC
modifications: expressed or natural sequence
In the case of B3, the “cleavage activity, fold difference between functional and inactive rz” value in data set [3] (rz at position E of pMD vector) was “further enhanced activity”.

B4: N117: N79 variant changed near the restriction insertion site, SEQ ID NO: 6 (nucleic acid)
chain: CUGAGAUGCAGGUACAUCCCACUGAUGAGUCCCAAAUAGGACGAAACGCGCUUCGGUGCGUCUGGGAUUCCACUGCUAUCCAC
modifications: expressed or natural sequence
Take B4: the “cleavage activity, fold difference between functional and inactive rz” value in data set [3] (rz at position E of pMD vector) is recorded as “further enhanced activity”.

B5: Schisto hammerhead: original hammerhead Sml rz of Schistosoma mansoni lacking loop III, SEQ ID NO: 2 (nucleic acid)
chain: CUGAGAUGCAGGUACAUCCAGCUGACGAGUCCCAAAUAGGACGAAACGCGCGUCCUGGAUUCCACUGCUAUCCAC
modifications: expressed or natural sequence
For the molecule B5, the “Fold (suppression in reporter gene expression relative to the vector with inactive rz)” value in data set [3] was 1 fold. Moreover, the “cleavage activity, fold difference between functional and inactive rz” value in data set [3] (setting [4]) is “no activity”.

B6: N27: Sml with tetraloop 5′-UUCG-3′ grafted onto extended stem III, SEQ ID NO: 3 (nucleic acid)
chain: CUGAGAUGCAGGUACAUCCAGCUGACGAGUCCCAAAUAGGACGAAACGCCUUCGGGCGUCCUGGAUUCCACUGCUAUCCAC
modifications: expressed or natural sequence
In the case of B6, the “Fold (suppression in reporter gene expression relative to the vector with inactive rz)” value in data set [3] worked out at 19 fold. The “cleavage activity, fold difference between functional and inactive rz” value in data set [3] (setting [4]) amounted to 19 fold.

B7: TRSV hammerhead: naturally occurring ribozyme, SEQ ID NO: 53 (nucleic acid)
chain: AUACCCUGUCACCGGAUGUGCUUUCCGGUCUGAUGAGUCCGUGAGGACGAAACAGGACUGUC
modifications: expressed or natural sequence
On to B7, for which the “Fold (suppression in reporter gene expression relative to the vector with inactive rz)” value in data set [3] is recorded as 1 fold.
